Data on two molecules can be found in patent US20200016125A1, “GRANZYME B INHIBITOR COMPOSITIONS AND METHODS FOR THE PREVENTION AND/OR TREATMENT OF SKIN BLISTERING AND/OR PEELING” (The University of British Columbia, priority 2017, published 2020).

For experiment [1], the target named is T1, GzmB (Homo sapiens, UniProt P10144).
T1 construct: purchased EmeraldBio
The experiment is described as follows: GzmB cleavage assay of collagen VII with GzmB inhibitors (Western Blot). The class given is biochemical. The following applies: for inhibition of GzmB-mediated collagen VII cleavage: FIG. 3, collagen VII 500 ng, 200 mM of GzmB, 24 hours 37° C., GzmB incubated with inhibitor 1 hour before substrate. As for the experimental part: Addition of GzmB inhibitors (Serpin A3N, Compound 20, Compound A) prevented GzmB-mediated collagen VII cleavage. Bands indicating fragments are labeled. GzmB cleavage assay was performed in 40 μL of PBS. Briefly, collagen VII (500 ng) was incubated with […] of GzmB for 24 hours at 37° C. For inhibition, GzmB was incubated with Compound 20, Serpin A3N and Compound A for 1 hour at 37° C. prior to the addition of collagen VII. After 24 hours, all samples were loaded onto a 10% SDS-PAGE, blotted on a PVDF membrane and incubated with a primary antibody specific for collagen VII (rabbit anti-collagen VII, Abcam plc) overnight at 4° C., and then with a secondary labeled anti-rabbit antibody for 1 hour at room temperature.
(§1) For inhibition studies, prior to the addition of substrates to the reaction, GzmB was incubated in the presence of 100 μM Compound A for 1 hour at 37° C. After 24 hours incubation, proteins were denatured, separated on a 4%-20% SDS-PAGE gel (for α6/β4). […] For inhibition studies, prior to the addition of substrates to the reaction, GzmB was incubated in the presence of 100 μM Compound A for 1 hour at 37° C. After 24 hours incubation, nidogen-2 protein was denatured and separated on a 7.5% SDS-PAGE gel. Cleavage was detected by anti-nidogen-2 antibody (R&D Systems). […] For inhibition studies, prior to the addition of substrates to the reaction, GzmB was incubated in the presence of 100 μM Compound A for 1 hour at 37° C. After 24 hours incubation, collagen VII protein was denatured and separated on a 10% SDS-PAGE gel. Cleavage was detected by anti-collagen VII antibody (ABCAM, Toronto, ON).
A GzmB cleavage assay was performed in 40 μL of PBS. Briefly, collagen VII (500 ng) was incubated with […] of GzmB for 24 hours at 37° C. For inhibition, GzmB was incubated with Compound 20, Serpin A3N and Compound A for 1 hour at 37° C. prior to the addition of collagen VII. After 24 hours all samples were loaded onto a 10% SDS-PAGE, blotted on PVDF membrane and incubated with a primary antibody specific for collagen VII (rabbit anti-collagen VII, Abcam plc) overnight at 4° C., and then with a secondary labeled anti-rabbit antibody for 1 hour at room temperature.
(§2) The recombinant human integrin α6/β4 (α6 a.a. 24-878, β4 a.a. 28-710, R&D Systems, Minneapolis, Minn.), collagen VII (199-482 a.a., MyBiosource, San Diego, Calif.), collagen XVII (a.a. 490-1497, generous gift from Dr. Claus-Werner Franzke), and collagen I (Novus Biologicals, Littleton, Colo.) were incubated for 24 hours at 37° C. in 200 nM purified human GzmB (EmeraldBio, Bainbridge Island, Wash.). For inhibition studies, prior to the addition of substrates to the reaction, GzmB was incubated in the presence of 600 nm serpin A3N (generous gift from Dr. Chris R. Bleackley, University of Alberta, Edmonton, AB, Canada) or 100 NM of the small molecule inhibitor Compound 20 (courtesy of the Centre for Drug Research and Development, Vancouver, BC) for 1 hour at 37° C. After the 24 hours incubation, proteins were denatured, separated on a 4-20% (for integrin α6/β4), 10% (for collagen VII), 8-10% (for collagen XVII), or 7.5% (for collagen I) SDS-polyacrylamide gel. Cleavage was detected by Western Blot using anti-human integrin α6 sub-unit (ABCAM), anti-human integrin β4 sub-unit (R&D Systems, Minneapolis, Minn.), anti collagen VII (ABCAM), and anti-human collagen XVII (generous gift from Dr. Claus-Werner Franzke) and imaged using a Li-Cor Odissey® FC (Li-Cor, Lincoln, Nebr.). […]
Background: Immunoblotting shows a protein as a band on a membrane.

Experiment [2] has as its target T1, GzmB. The experiment is described as follows: GzmB cleavage assay of integrin α6/β4 (α6 and β4 sub-units) with GzmB inhibitors. The class given is biochemical. As for the experimental part: as §1
as §2, with “After the 24 hours incubation, proteins were denatured, separated on a 4-20% (for integrin α6/β4), 10% (for collagen VII), 8-10% (for collagen XVII), or 7.5% (for collagen I) SDS-polyacrylamide gel.” left out

The target in experiment [3] is T1, GzmB. The experiment is described as follows: GzmB-mediated cleavage of nidogen-2 with inhibitor (Western Blot). Type of experiment: biochemical. The conditions noted are these: FIG. 22B; nidogen-2 residues 31-1375, 500 ng, 200 nM purified human GzmB, 100 μM Compound A. As for the experimental part: as §1
Experiment [4] concerns diabetic mouse model, burn injury to induce blistering. The experiment is described as follows: Burn injury blistering in diabetic mouse model. Type of experiment: in vivo. The conditions noted are these: for blistering compared to saline-only treatment: FIG. 8B, 30-day study. On the procedure:
FIGS. 8A through 8C provide evidence Compound A, a GzmB inhibitor, prevents blistering. Mice were exposed to burn injury by heating a steal rod for 6 seconds to 100° C. to induce blistering. Two independent experiments were run: In FIG. 8A, Compound A was added daily for 30 days. […] In FIG. 8B, Compound A in PBS (3.6 mg/mL) was administered daily by subcutaneous injection and in a gel (3.6 mg/mL) administered daily by topical application.
In this example mice were exposed to burn injury by heating a steal rod for 6 seconds to 100° C. to induce blistering.
There were two separate experiments run. Experiment 1 was a 30-day 3-arm study. Arm 1 consisted of treating the mouse daily with Compound A (3.6 mg/mL) in PBS by subcutaneous injection. In arm 2, Compound A (3.6 mg/mL) was administered to the mouse by daily topical application in the gel. In arm 3, the mouse was administered daily by subcutaneous injection saline as a control.
Experiment 2 was a 25-day 2-arm study. Arm 1 consisted of administering daily, through topical application, Compound A (3.6 mg/mL) in the gel. Arm 2 consisted of administering daily the vehicle gel through topical application as a control.

Experiment [5] addresses T1, GzmB. Briefly: GzmB-mediated cleavage of collagen XVII with inhibitors (Western Blot). Type of experiment: biochemical. The following applies: FIG. 16A, collagen XVII a.a. 490-1497, 200 nM GzmB, pre-incubation with Compound 20 or serpin A3N. As for the experimental part: Black arrow indicates cleavage fragment and * indicates full-length protein. GzmB produces a cleavage band, and this cleavage is abolished by the addition of Com20 or S3AN. […] Dotted lines indicate separation between the epidermis and the dermis. Scale bars represent […].
as §2, with “After the 24 hours incubation, proteins were denatured, separated on a 4-20% (for integrin α6/β4), 10% (for collagen VII), 8-10% (for collagen XVII), or 7.5% (for collagen I) SDS-polyacrylamide gel.” left out

T1 sequence (P10144 21-247): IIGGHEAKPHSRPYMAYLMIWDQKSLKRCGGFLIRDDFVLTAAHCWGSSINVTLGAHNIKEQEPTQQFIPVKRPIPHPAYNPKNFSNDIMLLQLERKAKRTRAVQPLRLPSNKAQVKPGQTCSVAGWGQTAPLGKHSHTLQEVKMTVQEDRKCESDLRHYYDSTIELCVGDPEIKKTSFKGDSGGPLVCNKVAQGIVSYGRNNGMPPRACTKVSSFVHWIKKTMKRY

Regarding `CC[C@H](C)[C@H](NC(=O)CCC(=O)O)C(=O)NCC(=O)N1C(=O)N(C2CCCCC2)C[C@H]1C(=O)NCc1nn[nH]n1` [Compound A, 4-(((2S,3S)-1-((2-((S)-5-(((2H-tetrazol-5-yl)methyl)carbamoyl)-3-cyclohexyl-2-oxoimidazolidin-1-yl)-2-oxoethyl)amino)-3-methyl-1-oxopentan-2-yl)amino)-4-oxobutanoic acid], the “inhibition of GzmB-mediated collagen VII cleavage” value at GzmB [1] was “prevented”. Further, on GzmB [1] (FIG. 22C, collagen VII residues 199-482, 500 ng, 200 nM purified human GzmB, 100 μM Compound A pre-incubated 1 hour), the “inhibition of GzmB-mediated cleavage of collagen VII” value is “this cleavage is prevented”. At GzmB [2] (FIG. 22A, Coomassie staining, 200 nM purified human GzmB, 100 μM Compound A pre-incubated 1 hour), the “inhibition of GzmB-mediated cleavage of α6β4 integrin” value was “can prevent the cleavage”. Moreover, the “inhibition of GzmB-mediated cleavage of nidogen-2” value on GzmB [3] was “this cleavage was prevented”. Besides, the blistering entry in experiment [4] (FIG. 8A, mice, burn injury, Compound A daily for 30 days versus saline-treated skin) is “Blistering is prevented”. Besides, the “blistering compared to saline-only treatment” value was “reduce blistering” in experiment [4] (Compound A in PBS 3.6 mg/mL, daily subcutaneous injection) and “reduce blistering” in experiment [4] (Compound A in gel 3.6 mg/mL, daily topical application). For the same molecule, in experiment [4] (FIG. 8C, Compound A in gel 3.6 mg/mL, daily topical application, 25-day study), the “blistering compared to gel alone” value was “reduced blistering”.

B1: Serpin A3N: an irreversible serine protease inhibitor used as GzmB inhibitor (protein, UniProt Q91WP6 21-418, looked up)
Serine protease inhibitor A3N: FPDGTLGMDAAVQEDHDNGTQLDSLTLASINTDFAFSLYKELVLKNPDKNIVFSPLSISAALAVMSLGAKGNTLEEILEGLKFNLTETSEADIHQGFGHLLQRLNQPKDQVQISTGSALFIEKRQQILTEFQEKAKTLYQAEAFTADFQQPRQAKKLINDYVRKQTQGMIKELVSDLDKRTLMVLVNYIYFKAKWKVPFDPLDTFKSEFYAGKRRPVIVPMMSMEDLTTPYFRDEELSCTVVELKYTGNASALFILPDQGRMQQVEASLQPETLRKWKNSLKPRMIDELHLPKFSISTDYSLEDVLSKLGIREVFSTQADLSAITGTKDLRVSQVVHKAVLDVAETGTEAAAATGVKFVPMSAKLYPLTVYFNRPFLIMIFDTETEIAPFIAKIANPK
Consider B1, for which the “inhibition of GzmB-mediated collagen VII cleavage” value in the experiment with GzmB [1] is on record as “prevented”. In addition, the “inhibition of GzmB-mediated cleavage of collagen VII” value with GzmB [1] (FIG. 15A, collagen VII a.a. 199-482, 200 nM purified human GzmB, 24 hours, pre-incubation with 600 nm serpin A3N or 100 NM Compound 20) is “prevented the appearance of both ˜20 and 25 kDa bands”; with GzmB [1] (FIG. 15A, collagen VII a.a. 199-482, 200 nM purified human GzmB, 24 hours, pre-incubation with 600 nm serpin A3N or 100 NM Compound 20, listed as S3AN), “abolished”. In addition, the “inhibition of GzmB-mediated cleavage of the α6 integrin subunit” value with GzmB [2] (FIG. 13A, 200 nM GzmB, Western Blot, Compound 20 100 μM, serpin A3N 600 nM) is “prevented the cleavage”. Also, the “inhibition of GzmB-mediated cleavage of β4 integrin sub-unit” value with GzmB [2] (FIG. 14A, 200 nM GzmB, Western Blot, Compound 20 100 μM, serpin A3N 600 nM) was “prevented the cleavage”. Moreover, the “inhibition of GzmB-mediated cleavage of collagen XVII (NC16 ectodomain)” value in the experiment with GzmB [5] is “prevented NC16 cleavage”; in the experiment with GzmB [5] (listed as S3AN), “abolished”.
